Like-named read-outs stand apart in the source and are kept apart here.
Assays:
[1] = test system: HL60 promyelocytic leukemia cells; test: Induction of differentiation of HL60 cells (NBT reduction); assay type: cell-based; details: 4 days culture, NBT-positive cells, read-out: Activation of Differentiation AC 50
Text: The biological properties analogous to vitamin D can likewise be measured by the capacity of the product to induce the differentiation of HL60 promyelocytic leukemia cells. The protocol of this test as well as the results obtained with the compounds according to the invention are described in example 9 of the present application.
Calcitriol induces the differentiation of promyelocytic leukemia cells (HL60) in monocytes/macrophages. This differentiation inductor effect is a well-characterized marker of cellular vitamin D activity. One of the most important antimicrobial products of macrophages is hydrogen peroxide, which can be analyzed experimentally by the reduction of NBT (Nitroblue Tetrazolium).
The method used is the following: The HL60 cells are inoculated into 6-well plates and then treated immediately with the compounds to be tested. After 4 days in culture, the cells are incubated with phorbol TPA ester and NBT for a short period and the differentiated cells, i.e., positive to NBT, are counted.

[2] = test system: normal human keratinocytes; test: Inhibition of proliferation of normal human keratinocytes (BrdU incorporation); assay type: cell-based; details: 5 days culture
Experimental: The biological properties analogous to vitamin D can likewise be measured by the capacity of the product to inhibit the proliferation of normal human keratinocytes (NHK in culture). The product is added to NHK cultured under conditions favoring the proliferative state. The product is left in contact with the cells for five days. The number of proliferative cells is measured by incorporation of bromodeoxyuridine (BRdU) into the DNA. The protocol of this test as well as the results obtained with the compounds according to the invention are described in example 8 of the present application.
It is known that 1,25-dihydroxyvitamin D3, called calcitriol and corresponding to natural vitamin D, inhibits the proliferation of human keratinocytes in culture. The method used is the following: the normal human keratinocytes are inoculated at low density into a 24-well plate. After 4 hours, the compounds to be tested are added to the culture medium. After culturing for 5 days, the proliferation of the keratinocytes is determined by incorporation of 5-bromo-2′ deoxyuridine (BrdU) in the DNA. The quantity of BrdU incorporated is then quantified by using the Elisa test (Enzyme Linked Immuno Sorbent Essay, test marketed by Roche Molecular Biochemicals).
The inhibitory effect on the proliferation of the keratinocytes of the compounds according to the invention and of the calcitriol used as a reference compound is summarized in table II which follows.

[3] = test system: 24-hydroxylase; test: In vivo induction of 24-hydroxylase mRNA in SKH mice after single topical application; details: for Induction in % vs Induction Calcitriol Tested at 0.01%: topical, 8 hours; for MRNA EXPRESSION OF 24-HYDROXYLASE Induction Factor Versus Ethanol: 50 μl, epidermis 8 hours after application
Text: The agonist activity on vitamin D receptors of the compounds of the invention can be likewise evaluated “in vivo” by induction of 24-hydroxylase in SKH mice. (Kang et. al., Journal of Investigative Dermatology, 1997, 108(4), 513-518). The test protocol used as well as the results obtained with the compounds according to the invention are described in example 10 of the present application. 1]:
Consequently, the agonist activity on receptors of vitamin D of the compounds of the invention can be evaluated “in vivo” by induction of 24-hydroxylase in SKH mice.
The method used is the following: […] mice receive a single topical application of a compound to be tested in solution in ethanol at increasing concentrations. A volume of 50 μl of the product to be tested or of the vehicle alone is applied on the back of the mice with the aid of a pipette.
Other SKH mice receive a single topical application of calcitriol in solution in ethanol at increasing concentrations. A volume of 50 μl of the product to be tested or of the vehicle alone is applied on the back of the mice with the aid of a pipette.
8 hours after topical application, the mice are euthanized, the treated skin is removed and the epidermidis is separated from the dermis. The quantification of the MRNA of the 24-Hydroxylase is carried out by semiquantitative PCR. The results are standardized with respect to the expression of the mRNA of GAPDH and the values for the different concentrations of calcitriol tested and, for the different compounds of the invention tested, are expressed as an induction factor with respect to calcitriol.

[4] = biological target: T1, human VDR receptor (Homo sapiens, UniProt P11473); test: Transactivation potential: VDR agonist activity, HeLa cotransfection with p240Hase-CAT reporter; assay type: cell-based; details: dose giving 50% of maximum activity, HeLa cells, 18 hours treatment
T1 construct: expressed in transfected cells; host or cells: HeLa
T1 sequence (P11473 1-427): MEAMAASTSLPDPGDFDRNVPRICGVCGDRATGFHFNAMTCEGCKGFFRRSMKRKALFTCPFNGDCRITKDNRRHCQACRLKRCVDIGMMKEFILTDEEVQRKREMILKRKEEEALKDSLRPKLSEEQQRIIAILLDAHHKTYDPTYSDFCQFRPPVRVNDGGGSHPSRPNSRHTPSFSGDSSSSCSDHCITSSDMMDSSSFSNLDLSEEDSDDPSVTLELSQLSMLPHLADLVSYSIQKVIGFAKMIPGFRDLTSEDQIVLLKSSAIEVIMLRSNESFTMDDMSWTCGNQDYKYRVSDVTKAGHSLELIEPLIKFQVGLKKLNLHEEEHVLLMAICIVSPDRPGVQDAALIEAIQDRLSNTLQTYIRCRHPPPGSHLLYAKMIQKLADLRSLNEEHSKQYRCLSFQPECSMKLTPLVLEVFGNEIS
Text: By way of example, the VDR agonist activity can be tested on the HeLa cell line by cotransfection of an expression vector for the human VDR receptor and of the reporter plasmid p240Hase-CAT. The agonist activity can be characterized in this cotransfection system by the determination of the dose necessary to obtain 50% of the maximum activity of the product (AC50). The detail of the protocol of this test as well as the results obtained with the compounds according to the invention are described in example 7 of the present application.
The VDR agonist activity can be tested on the HeLa cell line, by cotransfection of an expression vector of the human VDR receptor and of the p240Hase-CAT reporter plasmid which contains the region −1399 to +76 of the rat 24-hydroxylase promoter, cloned upstream of the phase coding for the chloramphenicol acetyltransferase (CAT) gene. 18 hours after cotransfection, the test product is added to the medium. After treatment for 18 hours, the measurement of the CAT activity of the cell lysates is carried out by means of an Elisa test (Enzyme Linked Immuno Sorbent Essay, test marketed by Roche Molecular Biochemicals). The agonist activity can be characterized in this cotransfection system by the determination of the dose necessary in order to obtain 50% of the maximum activity of the product (AC50).

[5] = compound tested at 0.01% (weight/volume)

| AC50 [4] | Molecule | Induction in % vs Induction Calcitriol Tested at 0.01% [3, 5] | AC50 ([1]; Homo sapiens, HL-60, 96 h) | IC50 ([2]; Keratinocyte, 120 h) | further results |
| --- | --- | --- | --- | --- | --- |
|  | 1,25-dihydroxyvitamin D3 [Calcitriol, reference compound] | 100% |  |  | AC50 [1]: 7 nM; IC50 [2]: 14 nM; MRNA EXPRESSION OF 24-HYDROXYLASE Induction Factor Versus Ethanol ([3]; topical 0.0001% (weight/volume) in ethanol): 6.7; MRNA EXPRESSION OF 24-HYDROXYLASE Induction Factor Versus Ethanol ([3]; topical 0.001% (weight/volume) in ethanol): 10.3; MRNA EXPRESSION OF 24-HYDROXYLASE Induction Factor Versus Ethanol ([3]; topical 0.01% (weight/volume) in ethanol): 20.1; MRNA EXPRESSION OF 24-HYDROXYLASE Induction Factor Versus Ethanol ([3]; topical 0.1% (weight/volume) in ethanol): 26 |
| 39 nM | CC/C(=C\C=C\C(O)(CC)CC)c1cccc(CCc2ccc(CO)c(CO)c2)c1 [Example 1, (4E,6E)-7-{3-[2-(3,4-Bis-hydroxymethylphenyl)ethyl]-phenyl}-3-ethylnona-4,6-dien-3-ol] |  | 56 nM | 45 nM | Induction in % vs Induction Calcitriol Tested at 0.01% ([3]; compound tested at 0.1% (weight/volume)): 108% |
| 77 nM | CC/C(=C\C#CC(O)(C(F)(F)F)C(F)(F)F)c1cccc(OCc2ccc(CO)c(CO)c2)c1 [Example 2, (E)-6-[3-{3,4-Bis-hydroxymethylbenzyloxy)phenyl]-1,1,1-trifluoro-2-tifluoromethyloct-5-en-3-yn-2-ol] | 58% |  | 153 nM |  |
| 7 nM | CC/C(=C\C=C\C(O)(C(F)(F)F)C(F)(F)F)c1cccc(OCc2ccc(CO)c(CO)c2)c1 [Example 3, (3E,5E)-6-[3-(3,4-Bis-hydroxymethylbenzyloxy)pheny]-1,1,1-trifluoro-2 trifluoromethylocta-3,5-dien-2-ol] |  | 7 nM | 35 nM | Induction in % vs Induction Calcitriol Tested at 0.01% ([3]; compound tested at 0.001% (weight/volume)): 59%; activity (24-hydroxylase induction) compared with calcitriol ([3]; in words): very superior |
| 16 nM | CC/C(=C\C#CC(O)(C(F)(F)F)C(F)(F)F)c1cccc(CCc2ccc(CO)c(CO)c2)c1 [Example 4, (E)-6-{3-[2-(3,4-Bis-hydroxymethylphenyl)ethyl]phenyl}-1,1,1-trifluoro-2-trifluoromethyloct-5-en-3-yn-2-ol] | 89% |  | 29 nM |  |
| 3 nM | CC/C(=C\C=C\C(O)(C(F)(F)F)C(F)(F)F)c1cccc(CCc2ccc(CO)c(CO)c2)c1 [Example 5, (3E,5E)-6-{3-[2-(3,4-Bis-hydroxymethylphenyl)ethyl]-phenyl}-1,1,1-trifluoro-2-trifluoromethylocta-3,5-dien-2-ol] |  | 5 nM | 8 nM | Induction in % vs Induction Calcitriol Tested at 0.01% ([3]; compound tested at 0.0003% (weight/volume)): 106% |

Reference: patent publication US7700657B2, “Vitamin D analogs” (Galderma Research & Development, priority 2001, dated 2010)
